Experiment [1] deals with PDE IV. Kind of experiment: Inhibition of PDE IV. It is filed as biochemical. The conditions noted are these: PDE isoenzymes isolated using DEAE-Sepharose chromatography. As for the experimental part:
(§1) PDE isoenzymes were isolated using DEAE-Sepharose chromatography as described by Reeves et al. in Biochem. J., 241 (1987), pp. 535-541. PDE IV and PDE III activities were determined by the method of Alajoutsijarvi and Nissinen as described in Anal. Biochem. 165 (1987), pp. 128-132.

For experiment [2], the target named is T1, PDE III (Homo sapiens, UniProt Q14432).
T1 construct: PDE isoenzymes were isolated using DEAE-Sepharose chromatography; from tissue; the cited Reeves et al. 1987 used human and guinea-pig cardiac ventricle (own knowledge)
T1 sequence (Q14432 whole entry): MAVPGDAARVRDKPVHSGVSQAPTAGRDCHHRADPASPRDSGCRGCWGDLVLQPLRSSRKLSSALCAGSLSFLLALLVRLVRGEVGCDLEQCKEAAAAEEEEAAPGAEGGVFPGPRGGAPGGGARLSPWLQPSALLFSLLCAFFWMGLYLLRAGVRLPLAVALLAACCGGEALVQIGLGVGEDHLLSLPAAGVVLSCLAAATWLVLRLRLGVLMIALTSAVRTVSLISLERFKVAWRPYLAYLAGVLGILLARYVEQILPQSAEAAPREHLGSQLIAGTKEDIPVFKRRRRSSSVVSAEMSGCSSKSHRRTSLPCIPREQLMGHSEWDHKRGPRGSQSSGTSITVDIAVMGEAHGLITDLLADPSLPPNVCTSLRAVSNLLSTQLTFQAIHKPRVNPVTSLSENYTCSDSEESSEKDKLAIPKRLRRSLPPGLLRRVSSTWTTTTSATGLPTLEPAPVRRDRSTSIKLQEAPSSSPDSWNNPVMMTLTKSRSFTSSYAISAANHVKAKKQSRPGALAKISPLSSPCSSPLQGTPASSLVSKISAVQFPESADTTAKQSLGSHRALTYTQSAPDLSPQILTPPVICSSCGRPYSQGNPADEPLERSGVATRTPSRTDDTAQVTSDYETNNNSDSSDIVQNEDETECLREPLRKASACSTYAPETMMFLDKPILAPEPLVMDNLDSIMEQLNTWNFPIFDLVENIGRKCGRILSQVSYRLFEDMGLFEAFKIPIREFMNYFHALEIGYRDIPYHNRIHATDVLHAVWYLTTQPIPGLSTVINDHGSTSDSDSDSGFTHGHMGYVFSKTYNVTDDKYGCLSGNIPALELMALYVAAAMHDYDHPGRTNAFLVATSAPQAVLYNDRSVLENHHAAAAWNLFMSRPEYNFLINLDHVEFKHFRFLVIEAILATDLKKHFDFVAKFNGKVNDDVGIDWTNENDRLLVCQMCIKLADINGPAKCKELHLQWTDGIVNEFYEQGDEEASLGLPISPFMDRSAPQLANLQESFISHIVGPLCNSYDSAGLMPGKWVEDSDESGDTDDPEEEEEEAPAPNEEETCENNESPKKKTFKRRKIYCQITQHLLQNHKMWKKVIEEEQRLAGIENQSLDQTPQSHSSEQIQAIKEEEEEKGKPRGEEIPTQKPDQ
Description: Inhibition of PDE III. It is filed as biochemical. The conditions noted are these: PDE isoenzymes isolated using DEAE-Sepharose chromatography. The procedure:
as §1

Experiment [3] concerns LTB4 synthesis in human basophilic leucocytes. Kind of experiment: Inhibition of arachidonic acid induced LTB4 synthesis. It is filed as cell-based. The conditions noted are these: Leucocyte, HPLC, UV 271 nm. The procedure: (§2) The inhibition of arachidonic acid induced LTB4 and LTC4 synthesis in human basophilic leucocytes was determined with liquid chromatography and UV detection. LTB4 and LTC4 were separated first by HPLC with a Spherisorb ODS colon (5 μm, 150×4.6 mm) and Spectroflow 400 Kratos Analytical pump. The flow rate was 1 ml/min and the solvents were methanol/water/acetic acid […], pH 5.0 for LTB4 and methanol/water/acetic acid/phosphoric acid (65/35/0.07/0.03), pH 5.5 for LTC4. The peaks were analyzed further with Spektroflow 773 Kratos Analytical UV absorbance detector and leukotrienes were detected at the wavelength of 271 nm and 280 nm for LTB4 and LTC4, respectively.

The subject of experiment [4] is LTC4 synthesis in human basophilic leucocytes. Kind of experiment: Inhibition of arachidonic acid induced LTC4 synthesis. Format: cell-based. The settings on record: Leucocyte, HPLC, UV 280 nm. The procedure:
as §2

Experiment [5] concerns PDE IV. The conditions noted are these: prior art compound, no test shown; cited from earlier work.
For experiment [6], the target named is T1, PDE III. The settings on record: prior art compound, no test shown; cited from earlier work.

One may read the IC50 as the midpoint of a concentration-inhibition curve. `COc1ccc(C2CC(=O)N(O)C2)cc1OC1CCCC1` (stereo not drawn) [Example 1, 1-Hydroxy-4-(3-cyclopentyloxy-4-methoxyphenyl)-2-pyrrolidone]: the IC50 came to 0.9 µM in the experiment on PDE IV [1], 205 µM against PDE III [2], 3.7 µM in experiment [3] and 3.2 µM in experiment [4].
For `COc1ccc(C2CNC(=O)C2)cc1OC1CCCC1` (stereo not drawn) [rolipram, 4-[3-(cyclopentyloxy)-4-methoxyphenyl]-2-pyrrolidone], the “PDE IV selectivity (in words)” value with PDE IV [5] is “not selective PDE IV inhibitor”. The “inhibition of PDE III (in words)” value on PDE III [6] was “also inhibits PDE III”.

These data come from patent publication US5356923A, “1-hydroxy-4(3-cyclopentyloxy-4-methoxyphenyl)-2-pyrrolidone and anti-hypertensive use thereof” (Orion-yhtyma Oy, priority 1990, dated 1994).
